# Experimental data from patent US11628160B2, “Compositions and methods for treating brain injury” (Azevan Pharmaceuticals, Inc., priority 2017, dated 2023).
# Columns and labels:
# Format in all cases: in vivo, rat
# Male Sprague Dawley rats [1] = test: Treatment in the momentum exchange impact model; details: concussed rats, two head impacts; IP 10 mg/kg twice daily 5 days; two weeks post impact; vs sham Control
# Method: EXAMPLE. Momentum exchange impact model. This model features several advantageous translational differences over some head injury models, such as the controlled cortical impact injury model. For example, the head, neck and body can move with impact, and the velocity of head movement and energy transfer can be calculated and scaled mild to provide range from moderate to severe concussions. Studies are conducted with moderate impacts with neuroradiological evidence of contusions. Male rats are concussed twice with one day. Additional details are described in Viano et al., “Evaluation of three animal models for concussion and serious brain injury” Ann Biomed Eng. 40(1):213-26 (2012). […] Sham non-concussed test animals are given vehicle or test compound. Test animals are treated twice daily for 5 consecutive days. At two weeks post concussion cognitive behaviors are assessed, using for example, the Barnes maze and/or novel recognition models. In addition, motor behaviors are assessed, using for example, beam walk and/or rotarod tests. […]
# The pneumatic pressure drive is replicated, 50 g compactor, as described by Viano and reproduced consistently, the 7.4, 9.3, and 11.2 m/s impact velocities described for mild, medium, and severe head injury, respectively. The data described herein are obtained from a 9.12 meters/sec impact velocity, as determined using high-speed video recordings. […]
# Male Sprague Dawley rats [2] = test: Motor behavior (balance beam, rotarod)
# Method: EXAMPLE. Momentum exchange impact model. This model features several advantageous translational differences over some head injury models, such as the controlled cortical impact injury model. For example, the head, neck and body can move with impact, and the velocity of head movement and energy transfer can be calculated and scaled mild to provide range from moderate to severe concussions. Studies are conducted with moderate impacts with neuroradiological evidence of contusions. Male rats are concussed twice with one day. Additional details are described in Viano et al., “Evaluation of three animal models for concussion and serious brain injury” Ann Biomed Eng. 40(1):213-26 (2012). […] Sham non-concussed test animals are given vehicle or test compound. Test animals are treated twice daily for 5 consecutive days. At two weeks post concussion cognitive behaviors are assessed, using for example, the Barnes maze and/or novel recognition models. In addition, motor behaviors are assessed, using for example, beam walk and/or rotarod tests. In each case, neuroradiological MRI is also performed. […]
# Male Sprague Dawley rats [3] = test: Edema and ventricular volumes (T2 relaxometry MRI); details: Treatment group; no significant difference to Control group
# Method: EXAMPLE. T2 Relaxometry measurement of edema. MRI was conducted 24-28 days after the injury to characterize edematous volume in the lateral ventricles using T2 relaxometry. The time of imaging was based on the rat model used for TBI assessment by Charles River. Images are acquired using a multi-slice multi-echo (MSME) pulse sequence. The echo time (TE) is illustratively 11 ms, and 16 echoes are acquired during imaging with a recovery time (TR) of 2500 ms. Images are acquired with a field of view [FOV] 3 cm^2, data matrix=256×256×20 slices, thickness=1 mm. Values for […] relaxation time (T2) are obtained from all the slices using ParaVison 5.1 software. T2 is used to characterize the edematous volume in the lateral ventricle. The T2 values are used for segmentation and quantification of the ventricle volume. The T2 values are computed using the equation; y=A+Cexp (−t/T2) (S.D. weighted) obtained from the Paravision 5.1 software, where, A=absolute bias, C=signal intensity, t=echo time and T2=spin-spin relaxation time. The ventricle is identified as a hyperintensity on the T2 map over three 1 mm sections. The volume is calculated using a snake region growth algorithm in itk-SNAP (www.itksnap.org). The threshold is illustratively set at 6300 to 9000 as absolute pixel intensity. A point is seeded within the ventricle and the algorithm run until segmentation is complete. […]
compound,measurement,setting,value
C[C@@H](NC(=O)[C@@H](CC(=O)N1CCC(N2CCCCC2)CC1)N1C(=O)[C@@H](N2C(=O)OC[C@@H]2c2ccccc2)[C@H]1/C=C/c1cccc(I)c1)c1ccccc1 [Example 266],deficits in learning and memory,Male Sprague Dawley rats [1],no deficits in learning and memory
same,rotarod latency to fall,"Male Sprague Dawley rats [2]; Treatment group, Injury group 69.8±5.5, Control group 105.4±7.6, P=0.2",84.0 ± 9.0 s
same,"overall motor behavior, Control vs Treatment group","Male Sprague Dawley rats [2]; concussed rats, IP 10 mg/kg twice daily 5 days",not a significant difference in overall motor behavior
same,volume of lateral ventricles at the level of impact,Male Sprague Dawley rats [3],ventricular volume returns to normal levels
